Source: PubChem BioAssay AID286 (DTP/NCI, 2004)
Where “and” joins values, the source holds several entries; their conditions need not be identical. Equal values may be shown once. Inconclusive results and toxic doses are left out. Starred links: 1 amine or outer side, 2 acyl side, 3 side chain; linkers in the order of their positions; H or OH if unused. Positions of bridges follow the written chain, without caps; N, C: chain ends. Non-standard residues stand in square brackets, D forms with d. Residues, ends and D or L forms follow the SMILES beside them. Chains are numbered I, II in the order given. Actinocin(9to1) = Cc1c2oc3c(C)ccc(C(=O)[*:1])c3nc-2c(C(=O)[*:2])c(N)c1=O; aThr = C[C@H](O)[C@H](N)C(=O)O; NMeV = CN[C@H](C(=O)O)C(C)C; Sar = CNCC(=O)O

System: BDF1 mice, M5076 sarcoma ip, median survival T/C
Assay: NCI In Vivo Anticancer Drug Screen. Data for tumor model Sarcoma M5076 (intraperitoneal) in B6D2F1 (BDF1) mice
Conditions: endpoint: median survival time, higher = longer survival
Method: The antitumor activity of compounds was measured in mice bearing transplantable tumors. Survival or tumor size were measured and the results are expressed as the measurement made in the treated group (T) divided by the measurement made in the vehicle treated control group (C). The tumor model used in this assay is Sarcoma M5076 (intraperitoneal) in B6D2F1 (BDF1) mice

[1] = dose: 0.5 mg/kg/injection, schedule: Q04DX005 (ip), vehicle: saline
[2] = dose: 1.0 mg/kg/injection, schedule: Q04DX005 (ip), vehicle: saline

CC1CCC(NC(=O)N(CCCl)N=O)CC1 (stereo not drawn)
T/C (dose: 3.0 mg/kg/injection, schedule: Q04DX004 (ip), vehicle: Klucel (hydroxypropylcellulose) (HPC)): 216 % of control and 163 % of control | T/C (dose: 6.0 mg/kg/injection, schedule: Q04DX004 (ip), vehicle: Klucel (hydroxypropylcellulose) (HPC)): 189 % of control and 193 % of control and 216 % of control | T/C (dose: 12.0 mg/kg/injection, schedule: Q04DX004 (ip), vehicle: Klucel (hydroxypropylcellulose) (HPC)): 216 % of control and 233 % of control and 320 % of control

COC1CC(C)C(OC)C2=CC(=O)C=C(NC(=O)/C(C)=C/C=C\C(C)C(OC(N)=O)/C(C)=C\C(C)C1OC)C2=O (stereo not drawn)
T/C (dose: 6.25 mg/kg/injection, schedule: Q04DX004 (ip), vehicle: saline + Tween-80 + alcohol): 124 % of control | T/C (dose: 12.5 mg/kg/injection, schedule: Q04DX004 (ip), vehicle: saline + Tween-80 + alcohol): 124 % of control

COc1cc2nc3occc3c(OC)c2cc1OCC(O)C(C)(C)O (stereo not drawn)
T/C (dose: 2.0 mg/kg/injection, schedule: Q01DX009 (ip), vehicle: Klucel (hydroxypropylcellulose) (HPC)): 106 % of control | T/C (dose: 4.0 mg/kg/injection, schedule: Q01DX009 (ip), vehicle: Klucel (hydroxypropylcellulose) (HPC)): 117 % of control | T/C (dose: 8.0 mg/kg/injection, schedule: Q01DX009 (ip), vehicle: Klucel (hydroxypropylcellulose) (HPC)): 106 % of control | T/C (dose: 16.0 mg/kg/injection, schedule: Q01DX009 (ip), vehicle: Klucel (hydroxypropylcellulose) (HPC)): 113 % of control | T/C (dose: 32.0 mg/kg/injection, schedule: Q01DX009 (ip), vehicle: Klucel (hydroxypropylcellulose) (HPC)): 106 % of control

O=NN(CCCl)C(=O)NC1CCCCC1
T/C (dose: 6.0 mg/kg/injection, schedule: Q01DX005 (sc), vehicle: other): 256 % of control | T/C (dose: 12.0 mg/kg/injection, schedule: Q01DX005 (sc), vehicle: other): 256 % of control

Nc1nncs1
T/C (dose: 100.0 mg/kg/injection, schedule: Q04DX004 (ip), vehicle: saline with Tween-80): 113 % of control | T/C (dose: 100.0 mg/kg/injection, schedule: Q04DX004 (ip), vehicle: saline): 112 % of control and 116 % of control and 121 % of control | T/C (dose: 100.0 mg/kg/injection, schedule: Q04DX005 (ip), vehicle: saline with Tween-80): 112 % of control | T/C (dose: 100.0 mg/kg/injection, schedule: Q04DX005 (ip), vehicle: saline): 119 % of control | T/C (dose: 200.0 mg/kg/injection, schedule: Q04DX004 (ip), vehicle: saline with Tween-80): 116 % of control | T/C (dose: 200.0 mg/kg/injection, schedule: Q04DX004 (ip), vehicle: saline): 112 % of control and 124 % of control | T/C (dose: 200.0 mg/kg/injection, schedule: Q04DX005 (ip), vehicle: saline with Tween-80): 121 % of control | T/C (dose: 200.0 mg/kg/injection, schedule: Q04DX005 (ip), vehicle: saline): 116 % of control and 124 % of control | T/C (dose: 400.0 mg/kg/injection, schedule: Q04DX004 (ip), vehicle: saline with Tween-80): 119 % of control | T/C (dose: 400.0 mg/kg/injection, schedule: Q04DX004 (ip), vehicle: saline): 110 % of control | T/C (dose: 400.0 mg/kg/injection, schedule: Q04DX005 (ip), vehicle: saline): 109 % of control | T/C (dose: 800.0 mg/kg/injection, schedule: Q04DX004 (ip), vehicle: saline with Tween-80): 124 % of control | T/C (dose: 800.0 mg/kg/injection, schedule: Q04DX004 (ip), vehicle: saline): 106 % of control | T/C (dose: 800.0 mg/kg/injection, schedule: Q04DX005 (ip), vehicle: saline): 151 % of control

Cc1c2oc3c(C)ccc(C(=O)N[C@@H]4C(=O)N[C@H](C(C)C)C(=O)N5CCC[C@H]5C(=O)N(C)CC(=O)N(C)[C@@H](C(C)C)C(=O)O[C@H]4C)c3nc-2c(C(=O)N[C@@H]2C(=O)N[C@H](C(C)C)C(=O)N3CCC[C@H]3C(=O)N(C)CC(=O)N(C)[C@@H](C(C)C)C(=O)O[C@H]2C)c(N)c1=O (I: [aThr][dV]P[Sar][NMeV] / II: [aThr][dV]P[Sar][NMeV]; ester I:1-I:C, II:1-II:C; linker I:N-II:N via Actinocin(9to1))
T/C (dose: 0.1 mg/kg/injection, schedule: Q04DX004 (ip), vehicle: saline + alcohol): 165 % of control | T/C (dose: 0.2 mg/kg/injection, schedule: Q04DX004 (ip), vehicle: saline + alcohol): 178 % of control

CC[C@]1(O)C[C@H]2CN(CCc3c([nH]c4ccccc34)[C@@](C(=O)OC)(c3cc4c(cc3OC)N(C=O)[C@H]3[C@@](O)(C(=O)OC)[C@H](OC(C)=O)[C@]5(CC)C=CCN6CC[C@]43[C@@H]65)C2)C1
T/C (dose: 0.25 mg/kg/injection, schedule: Q04DX005 (ip), vehicle: saline): 112 % of control and 124 % of control | T/C [1]: 164 % of control | T/C [2]: 228 % of control and 156 % of control

CCC1(O)CC2CN(CCc3c([nH]c4ccccc34)C(C(=O)OC)(c3cc4c(cc3OC)N(C)C3C(O)(C(N)=O)C(O)C5(CC)C=CCN6CCC43C65)C2)C1 (stereo not drawn) (tested in a mixture with another compound)
T/C [1]: 208 % of control | T/C [2]: 208 % of control

NC1=NC(O)C=C1 (stereo not drawn)
T/C (dose: 3.12 mg/kg/injection, schedule: Q01DX009 (ip), vehicle: saline): 118 % of control | T/C (dose: 20.0 mg/kg/injection, schedule: Q01DX009 (ip), vehicle: saline): 152 % of control | T/C (dose: 25.0 mg/kg/injection, schedule: Q01DX009 (ip), vehicle: saline): 160 % of control | T/C (dose: 40.0 mg/kg/injection, schedule: Q01DX009 (ip), vehicle: saline): 152 % of control | T/C (dose: 50.0 mg/kg/injection, schedule: Q01DX009 (ip), vehicle: saline): 178 % of control
